Results taken from US11446287B2, “Compounds and methods for EP300 or CBP modulation and indications therefor” (Opna Immuno-Oncology SA, priority 2019, dated 2022).

Biological target: T1, Recombinant human BRD4 containing dual bromodomains (BRD4-BD12 (1-477)) (Homo sapiens, UniProt O60885)
T1 construct: Recombinant human BRD4 containing dual bromodomains (BRD4-BD12 (1-477)); made in house; host or cells: E. coli BL21-CodonPlus (DE3), modified pET vector
Test: BRD4 Alphascreen binding assay
Procedure: BRD4 Alphascreen Binding Assay
Binding of compounds of Formula (I) with BRD4 was assessed using Alphascreen binding assay. The inhibition of the interaction between BRD4 and its acetylated target protein was measured quantitatively using recombinant BRD4 protein, an acetylated Histone 4 peptide, and AlphaScreen™ technology. In absence of inhibition of the BRD4 protein bound to AlphaScreen™ nickel chelate acceptor beads can interact with the acetylated Histone 4 peptide which was immobilized by the AlphaScreen™ Streptavidin coated beads. This interaction brings donor and acceptor beads in proximity. The close proximity allows the singlet oxygen produced by laser excitation of the donor beads to reach the acceptor beads and generate a luminescence signal. BRD4 inhibitors result in a decrease in the proximity signal through an inhibition of the BRD4—acetylated peptide interaction.
Recombinant human BRD4 containing dual bromodomains (BRD4-BD12 (1-477)) was prepared and purified as described in protein expression and purification session. The peptide was human Histone H41-21K5AcK8AcK12AcK16Ac-Biotin (Anaspec CA, USA).
Protocol for BRD4 assay: All components are prepared in buffer composed of 50 mM HEPES pH 7.5, 50 mM NaCl, 0.01% BSA, 0.01% Triton X-100, 2 mM DTT. Test compounds and DMSO vehicle are diluted 1:50 in buffer and a 4 μL volume was transferred to an Alphaplate. 5.5 μL of Bromodomain protein and 5.5 μL of peptide are added to wells containing 4 μL of various concentrations of test compounds of Formula (I) or DMSO vehicle in an Alphaplate (PerkinElmer GA, USA) and incubated for 1 hour at room temperature. 5 μL donor and acceptor bead mixture was then added with final concentrations of 7.5 μg/ml. 30 minutes after bead addition, Alpha signal was read on the Envision spectrometer (λEx 680 nm, λEm 520-620 nm). Final concentrations of bromodomain proteins and peptide are as shown below.
All data were normalized to the mean of 16 high and 16 low control wells on each plate. A four parameter curve fit of the following formula was then applied: Y=A+((B−A)/(1+((C/x)^D))) Where ‘A’ is the minimum, ‘B’ is the maximum, ‘C’ is the IC50 and ‘D’ is the Hill slope. Protein Expression and Purification
Recombinant human BRD4 containing dual bromodomains (BRD4-BD12 (1-477)) was expressed in E. coli cells (in a modified pET vector) with an N-terminal six-His tag and purified using a combination of both IMAC (Ni-affinity) and size exclusion chromatography steps.
Recombinant BRD4 was expressed using the E. coli strain BL21-CodonPlus (DE3) (Agilent Technologies CA, USA). Cells were grown in Terrific Broth (TB) media to an OD600 of 2.0 at 37° C. at which temperature was reduced to 18° C., protein was induced with 0.1 mM isopropyl-β-D-thiogalactopyranoside (“IPTG”) for 12-18 hours and harvested by centrifugation at 8000×g for 20 minutes. Cells were re-suspended in 40 mM Tris-HCl pH 8.0, 0.5 M NaCl, 25 mM Imidazole, 5% glycerol, 1/200 vol. Protease Inhibitor Cocktail Set III (Calbiochem), 5 mM beta-mercaptoethanol (“BME”), 0.5 mg/mL Lysozyme, and 0.5 mg/mL DNaseI, incubated on ice for 30 minutes and lysed with a cell disruptor (MicroFluidics MA, USA). The lysate was clarified by centrifugation at 20,000×g for 2 hours. The protein was captured with Ni-NTA resin (Life Technologies, USA). Contaminating proteins were washed off with 40 mM Tris-HCl pH 8.0, 0.5 M NaCl, 25 mM Imidazole, 5% glycerol, and 5 mM BME. Following 3× wash steps, protein was eluted step wise into wash buffer containing 50, 100, 150, 500 mM Imidazole. The protein was further purified using Gel Filtration column 16/60 Superdex 200 (GE Biosciences NJ, USA) in 10 mM HEPES pH 8.0, 150 mM NaCl, and 5 mM DTT. Glycerol was added to a final concentration of 12% and the protein was aliquoted and flash-frozen in liquid Nitrogen.

SMILES | IC50
Cc1noc(C)c1-c1cnc2c(c1)c(-c1ccc(C(=O)O)cc1OCc1ccccc1)cn2[C@@H](C)c1ccccn1 [P-0139, (S)-3-(benzyloxy)-4-(5-(3,5-dimethylisoxazol-4-yl)-1-(1-(pyridin-2-yl)ethyl)-1H-pyrrolo[2,3-b]pyridin-3-yl)benzoic acid] | 8 to 1000 µM
COc1ccc(C(=O)O)cc1-c1cn(C(C)c2ccccc2)c2cc(-c3c(C)noc3C)cnc12 (centres unmarked) [P-0140, 3-(6-(3,5-dimethylisoxazol-4-yl)-1-(1-phenylethyl)-1H-pyrrolo[3,2-b]pyridin-3-yl)-4-methoxybenzoic acid] | 8 to 1000 µM
Cc1noc(C)c1-c1cnc2c(-c3cc(C(=O)O)ccc3Cl)cn(C(C)c3ccccc3)c2c1 (centres unmarked) [P-0141, 4-chloro-3-(6-(3,5-dimethylisoxazol-4-yl)-1-(1-phenylethyl)-1H-pyrrolo[3,2-b]pyridin-3-yl)benzoic acid] | 8 to 1000 µM
COc1cc(C(=O)O)ccc1-c1cn([C@@H](C)c2ccccn2)c2cc(-c3c(C)noc3C)cnc12 [P-0142, (S)-4-(6-(3,5-dimethylisoxazol-4-yl)-1-(1-(pyridin-2-yl)ethyl)-1H-pyrrolo[3,2-b]pyridin-3-yl)-3-methoxybenzoic acid] | 0.0001 to 1 µM
Cc1noc(C)c1-c1cnc2c(CC3CCC3)cn(-c3ccc(O)nc3)c2c1 [P-0143, 5-(3-(cyclobutylmethyl)-6-(3,5-dimethylisoxazol-4-yl)-1H-pyrrolo[3,2-b]pyridin-1-yl)pyridin-2-ol] | 8 to 1000 µM
COc1cc(C(=O)O)cc(O)c1-c1cn([C@@H](C)c2ccccn2)c2ncc(-c3c(C)noc3C)cc12 [P-0144, (S)-4-(5-(3,5-dimethylisoxazol-4-yl)-1-(1-(pyridin-2-yl)ethyl)-1H-pyrrolo[2,3-b]pyridin-3-yl)-3-hydroxy-5-methoxybenzoic acid] | 8 to 1000 µM
Cc1noc(C)c1-c1cnc2c(c1)c(-c1ccnc(O)c1)cn2[C@@H](C)c1ccccn1 [P-0145, (S)-4-(5-(3,5-dimethylisoxazol-4-yl)-1-(1-(pyridin-2-yl)ethyl)-1H-pyrrolo[2,3-b]pyridin-3-yl)pyridin-2-ol] | 8 to 1000 µM
COc1cc(C(=O)O)cc(OC)c1-c1cn([C@@H](C)c2ccccn2)c2cc(-c3c(C)noc3C)cnc12 [P-0146, (S)-4-(6-(3,5-dimethylisoxazol-4-yl)-1-(1-(pyridin-2-yl)ethyl)-1H-pyrrolo[3,2-b]pyridin-3-yl)-3,5-dimethoxybenzoic acid] | 8 to 1000 µM
CCOc1cc(C(=O)O)cc(OCC)c1-c1cn([C@@H](C)c2ccccn2)c2ncc(-c3c(C)noc3C)cc12 [P-0147, (S)-4-(5-(3,5-dimethylisoxazol-4-yl)-1-(1-(pyridin-2-yl)ethyl)-1H-pyrrolo[2,3-b]pyridin-3-yl)-3,5-diethoxybenzoic acid] | 8 to 1000 µM
CC[C@@H](c1ccccn1)n1cc(-c2cc(C(=O)O)ccc2Cl)c2ncc(-c3c(C)noc3C)cc21 [P-0148, (S)-4-chloro-3-(6-(3,5-dimethylisoxazol-4-yl)-1-(1-(pyridin-2-yl)propyl)-1H-pyrrolo[3,2-b]pyridin-3-yl)benzoic acid] | 1 to 8 µM
Cc1noc(C)c1-c1cc2c(cn1)c(CC1CCC1)cn2-c1c(Cl)cc(C(=O)O)cc1Cl [P-0149, 3,5-dichloro-4-(3-(cyclobutylmethyl)-6-(3,5-dimethylisoxazol-4-yl)-1H-pyrrolo[3,2-c]pyridin-1-yl)benzoic acid] | 8 to 1000 µM
Cc1noc(C)c1-c1cnc2c(-c3ccccc3)cn(-c3c(Cl)cc(C(=O)O)cc3Cl)c2c1 [P-0150, 3,5-dichloro-4-(6-(3,5-dimethylisoxazol-4-yl)-3-phenyl-1H-pyrrolo[3,2-b]pyridin-1-yl)benzoic acid] | 1 to 8 µM
Cc1noc(C)c1-c1cnc2c(C3=CCOCC3)cn(-c3c(Cl)cc(C(=O)O)cc3Cl)c2c1 [P-0151, 3,5-dichloro-4-(3-(3,6-dihydro-2H-pyran-4-yl)-6-(3,5-dimethylisoxazol-4-yl)-1H-pyrrolo[3,2-b]pyridin-1-yl)benzoic acid] | 1 to 8 µM
COc1cc(C(=O)O)cc(OCC2CC2)c1-c1cn([C@@H](C)c2ccccn2)c2ncc(-c3c(C)noc3C)cc12 [P-0152, (S)-3-(cyclopropylmethoxy)-4-(5-(3,5-dimethylisoxazol-4-yl)-1-(1-(pyridin-2-yl)ethyl)-1H-pyrrolo[2,3-b]pyridin-3-yl)-5-methoxybenzoic acid] | 8 to 1000 µM
COc1cc(C(=O)O)cc(OCC(F)(F)F)c1-c1cn([C@@H](C)c2ccccn2)c2ncc(-c3c(C)noc3C)cc12 [P-0153, (S)-4-(5-(3,5-dimethylisoxazol-4-yl)-1-(1-(pyridin-2-yl)ethyl)-1H-pyrrolo[2,3-b]pyridin-3-yl)-3-methoxy-5-(2,2,2-trifluoroethoxy)benzoic acid] | 8 to 1000 µM
Cc1noc(C)c1-c1cnc2c(-c3ccc(C(=O)O)cc3)c(C(F)(F)F)n([C@@H](C)c3ccccn3)c2c1 [P-0154, (S)-4-(6-(3,5-dimethylisoxazol-4-yl)-1-(1-(pyridin-2-yl)ethyl)-2-(trifluoromethyl)-1H-pyrrolo[3,2-b]pyridin-3-yl)benzoic acid] | 0.0001 to 1 µM
Cc1noc(C)c1-c1cnc2c(-c3ccccc3Cl)cn(C(C)(c3ccccn3)c3ccccn3)c2c1 [P-0155, 4-(3-(2-chloropheny1)-1-(1,1-di(pyridin-2-yl)ethyl)-1H-pyrrolo[3,2-b]pyridin-6-yl)-3,5-dimethylisoxazole] | 0.0001 to 1 µM
Cc1noc(C)c1-c1cnc2c(c1)c(-c1ccc(C(=O)O)cc1OC(F)(F)F)cn2C(C1CC1)C1CC1 [P-0156, 4-(1-(dicyclopropylmethyl)-5-(3,5-dimethylisoxazol-4-yl)-1H-pyrrolo[2,3-b]pyridin-3-yl)-3-(trifluoromethoxy)benzoic acid] | 8 to 1000 µM
Cc1noc(C)c1-c1cnc2c(c1)c(-c1ccc(C(=O)O)cc1OC(F)(F)F)cn2CC1CC(F)(F)C1 [P-0157, 4-(1-((3,3-difluorocyclobutyl)methyl)-5-(3,5-dimethylisoxazol-4-yl)-1H-pyrrolo[2,3-b]pyridin-3-yl)-3-(trifluoromethoxy)benzoic acid] | 0.0001 to 1 µM
Cc1noc(C)c1-c1cnc2c(c1)c(-c1ccc(C(=O)O)cc1OC(F)(F)F)cn2-c1ccccn1 [P-0158, 4-(5-(3,5-dimethylisoxazol-4-yl)-1-(pyridin-2-yl)-1H-pyrrolo[2,3-b]pyridin-3-yl)-3-(trifluoromethoxy)benzoic acid] | 0.0001 to 1 µM
Cc1noc(C)c1-c1cnc2c(Cc3ccccn3)cn(-c3ccc(C(=O)O)cc3OC(F)(F)F)c2c1 [P-0159, 4-(6-(3,5-dimethylisoxazol-4-yl)-3-(pyridin-2-ylmethyl)-1H-pyrrolo[3,2-b]pyridin-1-yl)-3-(trifluoromethoxy)benzoic acid] | 0.0001 to 1 µM
Cc1noc(C)c1-c1cnc2c(-c3cnn(C)c3)c(C(F)(F)F)n([C@@H](C)c3ccccn3)c2c1 [P-0160, (S)-3,5-dimethyl-4-(3-(1-methyl-1H-pyrazol-4-yl)-1-(1-(pyridin-2-yl)ethyl)-2-(trifluoromethyl)-1H-pyrrolo[3,2-b]pyridin-6-yl)isoxazole] | 0.0001 to 1 µM
Cc1noc(C)c1-c1cnc2c(-c3cccc(CC(=O)O)c3)c(C(F)(F)F)n([C@@H](C)c3ccccn3)c2c1 [P-0161, (S)-2-(3-(6-(3,5-dimethylisoxazol-4-yl)-1-(1-(pyridin-2-yl)ethyl)-2-(trifluoromethyl)-1H-pyrrolo[3,2-b]pyridin-3-yl)phenyl)acetic acid] | 8 to 1000 µM
